Source: ChEMBL document CHEMBL4765414, “Rhodamine B-based fluorescent probes for molecular mechanism study of the anti-influenza activity of pentacyclic triterpenes” (Eur J Med Chem, 2020)
pIC50, pKd: −log10 of the molar value. Active and inactive are the calls of the source. The rule behind the calls is not given here.

Experiments:
[1] = system: MDCK; assay: Cytotoxicity against dog MDCK cells assessed as reduction in cell viability at 50 uM measured after 36 hrs by Celltiter-Glo luminescence assay; format: cell-based, Canis lupus familiaris
[2] = system: Influenza A virus; assay: Antiviral activity against Influenza A virus A/WSN/33(H1N1) infected in MDCK cells assessed as inhibition of viral replication measured after 36 hrs by CellTiter-Glo assay; format: functional, organism-based; details: A/WSN/1933(H1N1)
[3] = system: Influenza A virus; assay: Antiviral activity against Influenza A virus A/WSN/33(H1N1) infected in MDCK cells assessed as inhibition of virus-induced cytopathic effects at 50 uM after 36 hrs by microscopic analysis; format: functional, A/WSN/1933(H1N1); parameters: scale not given: the % may be the effect or the level left
[4] = system: Influenza A virus; assay: Antiviral activity against Influenza A virus A/WSN/33(H1N1) infected in MDCK cells assessed as inhibition of viral replication at 100 uM measured after 36 hrs by CellTiter-Glo assay; format: functional, organism-based; details: A/WSN/1933(H1N1)
[5] = Cytotoxicity against dog MDCK cells assessed as reduction in cell viability measured after 36 hrs by Celltiter-Glo luminescence assay; format: cell-based, Canis lupus familiaris
[6] = Selectivity ratio of CC50 for MDCK cells to IC50 for Influenza A virus A/WSN/33(H1N1) infected in MDCK cells; format: toxicity, cell-based; details: dog, read-out: Ratio CC50/IC50
[7] = Binding affinity to recombinant influenza A virus A/WSN/33(H1N1) hemagglutin assessed as dissociation constant by surface plasmon resonance assay; parameters: species or system Influenza A virus (A/WSN/1933(H1N1))
[8] = system: Influenza A virus (A/WSN/1933(H1N1)); assay: Binding affinity to recombinant influenza A virus A/WSN/33(H1N1) hemagglutin assessed as association constant by surface plasmon resonance assay
[9] = Binding affinity to recombinant influenza A virus A/WSN/33(H1N1) hemagglutin by surface plasmon resonance assay; parameters: species or system Influenza A virus (A/WSN/1933(H1N1))
[10] = system: Influenza A virus; assay: Antiviral activity against Influenza A virus A/WSN/33(H1N1) infected in MDCK cells assessed as inhibition of virus-induced cell death at 50 uM cotreated with virus and cells for 1 hrs and measured after 36 hrs; format: functional, A/WSN/1933(H1N1); parameters: scale not given: the % may be the effect or the level left; details: time 37 hrs
[11] = system: Influenza A virus; assay: Antiviral activity against Influenza A virus A/WSN/33(H1N1) infected in MDCK cells assessed as inhibition of virus-induced cell death at 50 uM preincubated with cells for 30 mins followed by viral infection for 1 hr and measured after 36 hrs; format: functional, A/WSN/1933(H1N1); parameters: scale not given: the % may be the effect or the level left; details: time 2250 min, 37.5 h
[12] = system: Influenza A virus; assay: Antiviral activity against Influenza A virus A/WSN/33(H1N1) infected in MDCK cells assessed as inhibition of virus-induced cell death at 50 uM preincubated with virus for 30 mins followed by cell infection for 1 hr and measured after 36 hrs; format: functional, A/WSN/1933(H1N1); parameters: scale not given: the % may be the effect or the level left; details: time 2250 min, 37.5 h
[13] = system: Erythrocyte; assay: Inhibition of Influenza A virus A/WSN/33(H1N1) hemagglutinin assessed as inhibition of chicken erythrocytes hemagglutination upto 20 uM incubated for 30 mins; format: cell-based; details: Influenza A virus (A/WSN/1933(H1N1)), dose microM <=20, time 30.0 min
[14] = Drug localization in cell membrane of MDCK cells at 25 uM incubated for 1 to 3 hrs by DOI staining based confocal microscopy analysis; format: ADME, cell membranes, Canis lupus familiaris; details: dog, time 1-3 hrs
[15] = Drug localization in cytoplasm of MDCK cells at 25 uM incubated for 12 hrs by confocal microscopy analysis; format: ADME, subcellular, Canis lupus familiaris; details: dog
[16] = Stability of compound in dog MDCK cells after 36 hrs; format: ADME, cell-based, Canis lupus familiaris
[17] = Drug uptake in dog MDCK cells assessed as increase in red fluorescence at 25 uM incubated for 1 hr by flow cytometry analysis; format: ADME, cell-based, Canis lupus familiaris
[18] = Drug uptake in dog MDCK cells assessed as increase in red fluorescence at 25 uM incubated for 3 hrs by flow cytometry analysis; format: ADME, cell-based, Canis lupus familiaris
[19] = Drug uptake in dog MDCK cells assessed as increase in red fluorescence at 25 uM incubated for 36 hrs by flow cytometry analysis; format: ADME, cell-based, Canis lupus familiaris
[20] = system: Influenza A virus; assay: Antiviral activity against Influenza A virus A/WSN/33(H1N1) infected in MDCK cells assessed as reduction in antiviral activity preincubated with cells for 3 hrs followed by viral infection; format: functional, A/WSN/1933(H1N1); parameters: scale not given: the % may be the effect or the level left
[21] = system: Influenza A virus; assay: Antiviral activity against Influenza A virus A/WSN/33(H1N1) infected in MDCK cells preincubated with cells for 5 hrs followed by viral infection; format: functional, organism-based; details: A/WSN/1933(H1N1)
[22] = system: Influenza A virus; assay: Antiviral activity against Influenza A virus A/WSN/33(H1N1) infected in MDCK cells preincubated with cells for 12 hrs followed by viral infection; format: functional, organism-based; details: A/WSN/1933(H1N1)

In the case of `CCN(CC)c1ccc2c(c1)Oc1cc(N(CC)CC)ccc1C21c2ccccc2C(=O)N1CCNC(=O)[C@]12CCC(C)(C)C[C@@H]1C1=CC[C@@H]3[C@@]4(C)CC[C@H](O)C(C)(C)[C@@H]4CC[C@@]3(C)[C@]1(C)C[C@H]2O`, the Activity [1] was “Non-Toxic”, the pIC50 [2] was 4.88 and the Activity [3] was over 90%.

In the case of `CCN(CC)c1ccc2c(-c3ccccc3C(=O)O)c3ccc(=[N+](CC)CC)cc-3oc2c1` [RHODAMINE], the Activity [4] was “inactive” and the pIC50 [2] was under 4.00.

For `CCN(CC)c1ccc2c(c1)Oc1cc(N(CC)CC)ccc1C21c2ccccc2C(=O)N1CCNC(=O)[C@]12CCC(C)(C)C[C@@H]1C1=CC[C@@H]3[C@@]4(C)CC[C@H](O)C(C)(C)[C@@H]4CC[C@@]3(C)[C@]1(C)CC2`, the Activity [1] was “Non-Toxic”, the pIC50 [2] was 4.85 and the Activity [3] was over 90%.

In the case of `C=C(C)[C@@H]1CC[C@]2(C(=O)NCCN3C(=O)c4ccccc4C34c3ccc(N(CC)CC)cc3Oc3cc(N(CC)CC)ccc34)CC[C@]3(C)[C@H](CC[C@@H]4[C@@]5(C)CC[C@H](O)C(C)(C)[C@@H]5CC[C@]43C)[C@@H]12`, the Activity [1] was “Non-Toxic”, the pIC50 [2] was 5.08 and the CC50 at 36 h [5] was 324 µM. The selectivity ratio [6] was 38.8.

In the case of `C[C@H]1[C@H](C)CC[C@]2(C(=O)O)CC[C@]3(C)C(=CC[C@@H]4[C@@]5(C)CC[C@H](O)C(C)(C)[C@@H]5CC[C@]43C)[C@@H]12`, the Kd [7] was 7.1 10^-2/s, the Ka [8] was 1.73 10^3/M.s and the Activity [3] was 31%. For the same compound, the pKd [9] was 4.39.

`CC1(C)CC[C@]2(C(=O)O)CC[C@]3(C)C(=CC[C@@H]4[C@@]5(C)CC[C@H](O)C(C)(C)[C@@H]5CC[C@]43C)[C@H]2C1` showed an Activity [3] of 17%.

For `CCN(CC)c1ccc2c(c1)Oc1cc(N(CC)CC)ccc1C21c2ccccc2C(=O)N1CCNC(=O)[C@]12CC[C@@H](C)[C@H](C)[C@@H]1C1=CC[C@@H]3[C@@]4(C)CC[C@H](O)C(C)(C)[C@@H]4CC[C@@]3(C)[C@]1(C)CC2`, the Kd [7] was 4.14 10^-2/s, the Ka [8] was 2.33 10^3/M.s and the Activity [1] was “Non-Toxic”. The pIC50 [2] was 5.08, the CC50 at 36 h [5] was 368 µM and the selectivity ratio [6] was 44.7. The Activity [3] was over 90%, the Activity ([3]; A/WSN/1933(H1N1)) was “Active” and the Activity [10] was 91%. The Activity [11] was 15%, the Activity [12] was 95% and the inhibition [13] was “Active”. The pKd [9] was 4.75, the Drug uptake [14] was “Active” and the Drug uptake [15] was “Active”. For the same compound, the Stabilty [16] was “Stable”, the Drug uptake [17] was 52.4% and the Drug uptake [18] was 62.6%. For the same compound, the Drug uptake [19] was 97.5%, the Activity [20] was 25% and the Activity [21] was “inactive”. For the same compound, the Activity [22] was “inactive”.
